Laboratory results taken from US12052991B2, “Substituted pyridinyloxybenzenes and salts thereof and use thereof as herbicidal agents” (Bayer Aktiengesellschaft, priority 2018, dated 2024).

Key:
Format in all cases: in vivo
[1] = system: Alopecurus myosuroides (ALOMY); experiment: Herbicidal pre-emergence action, test C (Table C9); conditions: visual scoring after about 3 weeks, 100% = plants have died, 0% = like control plants
Outline: (§1)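 Visual scoring after about 3 weeks in the greenhouse gave % activity relative to untreated controls, 100% meaning plants died. Compounds, as WP or EC with 0.5% additive, had been applied to covering soil at 1280 or 320 g/ha in 600 L/ha water.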

[2] = system: Setaria viridis (SETVI); experiment: Herbicidal post-emergence action (Table B4); conditions: 1280 g/ha; rated visually after about 3 weeks; 100% = plants have died, 0% = like control plants
Outline: (§2)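 Post-emergence spray, one-leaf stage (2–3 wk after sowing), sandy loam, greenhouse. WP/EC in water + 0.5% additive, 600 L/ha, 1280 or 320 g/ha. Visual % activity vs untreated after ~3 wk (0% = like control, 100% = plants dead).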

[3] = system: Matricaria inodora (MATIN); experiment: Herbicidal post-emergence action (Table B7); conditions: 1280 g/ha; rated visually after about 3 weeks; 100% = plants have died, 0% = like control plants
Method: Seeds of mono- and dicotyledonous weed plants were placed in plastic pots in sandy loam soil (doubly sown with in each case one species of mono- or dicotyledonous weed plants per pot), covered with soil and cultivated in a greenhouse under controlled growth conditions. 2 to 3 weeks after sowing, the test plants were treated at the one-leaf stage. The compounds of the invention, formulated in the form of wettable powders (WP) or as emulsion concentrates (EC), were applied onto the green parts of the plants as aqueous suspension or emulsion with addition of 0.5% additive at a water application rate of 600 liters per hectare (converted). After the test plants had been kept in the greenhouse under optimum growth conditions for about 3 weeks, the activity of the preparations was rated visually in comparison to untreated controls. For example, 100% activity=the plants have died, 0% activity=like control plants. Tables B1 to B12 below show the effects of selected compounds of the general formula (I) according to Table 1 on various harmful plants and an application rate corresponding to 1280 or 320 g/ha, which were obtained by the experimental procedure mentioned above.

[4] = system: Echinochloa crus-galli (ECHCG); experiment: Herbicidal pre-emergence action, test C (Table C1); conditions: dosage 1280 g/ha; visual scoring after about 3 weeks; 100% = plants have died, 0% = like control plants
Outline: as §1

[5] = system: Bassia scoparia (KCHSC); experiment: Herbicidal post-emergence action (Table B11); conditions: visual rating about 3 weeks after treatment, 100% = plants have died, 0% = like control plants
Outline: as §2

[6] = system: Abutilon theophrasti (ABUTH); experiment: Herbicidal post-emergence action (Table B5); conditions: rated visually after about 3 weeks, 100% = plants have died, 0% = like control plants
Outline: as §2

[7] = system: Setaria viridis (SETVI); experiment: Herbicidal pre-emergence action, test C (Table C4); conditions: visual scoring after about 3 weeks, 100% = plants have died, 0% = like control plants
Outline: as §1

[8] = system: Digitaria sanguinalis (DIGSA); experiment: Herbicidal pre-emergence action, test C (Table C10); conditions: visual scoring after about 3 weeks, 100% = plants have died, 0% = like control plants
Outline: as §1

[9] = system: Poa annua (POAAN); experiment: Herbicidal pre-emergence action, test C (Table C3); conditions: visual scoring after about 3 weeks, 100% = plants have died, 0% = like control plants
Outline: as §1

[10] = system: Lolium rigidum (LOLRI); experiment: Herbicidal pre-emergence action, test C (Table C2); conditions: visual scoring after about 3 weeks, 100% = plants have died, 0% = like control plants
Outline: as §1

[11] = system: harmful plants ABUTH, AMARE, ECHCG, LOLRI, MATIN, POAAN, SETVI, STEME, ALOMY, DIGSA, KCHSC and VERPE; experiment: Herbicidal post-emergence action, summary of Tables B1-B12; conditions: application rate of 1280 or 320 g of active ingredient per hectare; summary in words
Outline: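 Activity scored by eye roughly 3 weeks post-treatment against untreated plants, from 0% (no effect) to 100% (plants dead). Application rates were 1280 or 320 g/ha, as aqueous WP/EC spray plus 0.5% additive at 600 L/ha, onto one-leaf-stage weeds grown 2–3 weeks in sandy loam.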

[12] = system: Poa annua (POAAN); experiment: Herbicidal post-emergence action (Table B3); conditions: rated visually after about 3 weeks, 100% = plants have died, 0% = like control plants
Outline: as §2

[13] = system: Veronica persica (VERPE); experiment: Herbicidal pre-emergence action, test C (Table C12); conditions: visual scoring vs untreated controls
Outline: as §1

[14] = system: Echinochloa crus-galli (ECHCG); experiment: Herbicidal post-emergence action (Table B1); conditions: rated visually after about 3 weeks, 100% = plants have died, 0% = like control plants
Outline: as §2

[15] = system: Digitaria sanguinalis (DIGSA); experiment: Herbicidal post-emergence action (Table B10); conditions: visual rating about 3 weeks after treatment, 100% = plants have died, 0% = like control plants
Outline: as §2

[16] = system: Stellaria media (STEME); experiment: Herbicidal pre-emergence action, test C (Table C8); conditions: visual scoring after about 3 weeks, 100% = plants have died, 0% = like control plants
Outline: as §1

[17] = system: Alopecurus myosuroides (ALOMY); experiment: Herbicidal post-emergence action (Table B9); conditions: rated visually after about 3 weeks, 100% = plants have died, 0% = like control plants
Outline: as §2

[18] = system: harmful plants ABUTH, AMARE, ECHCG, LOLRI, MATIN, POAAN, SETVI, STEME, ALOMY, DIGSA, KCHSC and VERPE; experiment: Herbicidal pre-emergence action (test C), summary of Tables C1-C12; conditions: application rate of 1280 or 320 g of active ingredient per hectare; summary in words
Outline: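 Visual % damage versus untreated plants (0% = like control, 100% = died) was scored after about 3 weeks in the greenhouse. Before emergence, seeds sown in sandy loam got a soil-surface spray of compound as WP or EC plus 0.5% additive, using 600 L/ha water at rates of 1280 or 320 g/ha.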

[19] = system: Stellaria media (STEME); experiment: Herbicidal post-emergence action (Table B8); conditions: visual rating about 3 weeks after treatment, 100% = plants have died, 0% = like control plants
Outline: as §2

[20] = system: Amaranthus retroflexus (AMARE); experiment: Herbicidal post-emergence action (Table B6); conditions: visual rating about 3 weeks after treatment, 100% = plants have died, 0% = like control plants
Outline: as §2

[21] = system: Matricaria inodora (MATIN); experiment: Herbicidal pre-emergence action, test C (Table C7); conditions: visual scoring after about 3 weeks, 100% = plants have died, 0% = like control plants
Outline: as §1

[22] = system: Amaranthus retroflexus (AMARE); experiment: Herbicidal pre-emergence action, test C (Table C6); conditions: visual scoring after about 3 weeks, 100% = plants have died, 0% = like control plants
Outline: as §1

[23] = system: Abutilon theophrasti (ABUTH); experiment: Herbicidal pre-emergence action, test C (Table C5); conditions: dosage 1280 g/ha; visual scoring after about 3 weeks; 100% = plants have died, 0% = like control plants
Outline: as §1

[24] = system: Veronica persica (VERPE); experiment: Herbicidal post-emergence action (Table B12); conditions: visual rating about 3 weeks after treatment, 100% = plants have died, 0% = like control plants
Outline: as §2

Row | Compound | Pre-emergence action against Alopecurus myosuroides (ALOMY) ([1]; dosage 1280 g/ha) [%] | Post-emergence action against Matricaria inodora (MATIN) [3] [%] | Post-emergence action against Bassia scoparia (KCHSC) ([5]; dosage 1280 g/ha) [%] | Post-emergence action against Abutilon theophrasti (ABUTH) ([6]; 320 g/ha) [%] | Post-emergence action against Abutilon theophrasti (ABUTH) ([6]; 1280 g/ha) [%] | Pre-emergence action against Setaria viridis (SETVI) ([7]; dosage 1280 g/ha) [%] | Pre-emergence action against Digitaria sanguinalis (DIGSA) ([8]; dosage 1280 g/ha) [%] | herbicidal activity against the harmful plants of Tables B1-B12 in post-emergence treatment [11] | Post-emergence action against Poa annua (POAAN) ([12]; 320 g/ha) [%] | Post-emergence action against Poa annua (POAAN) ([12]; 1280 g/ha) [%] | Pre-emergence action against Veronica persica (VERPE) ([13]; dosage 1280 g/ha) [%] | Post-emergence action against Digitaria sanguinalis (DIGSA) ([15]; dosage 1280 g/ha) [%] | Pre-emergence action against Stellaria media (STEME) ([16]; dosage 320 g/ha) [%] | Pre-emergence action against Stellaria media (STEME) ([16]; dosage 1280 g/ha) [%] | Post-emergence action against Alopecurus myosuroides (ALOMY) ([17]; 1280 g/ha) [%] | herbicidal activity against the harmful plants of Tables C1-C12 in pre-emergence treatment [18] | Post-emergence action against Stellaria media (STEME) ([19]; dosage 1280 g/ha) [%] | Post-emergence action against Amaranthus retroflexus (AMARE) ([20]; dosage 320 g/ha) [%] | Post-emergence action against Amaranthus retroflexus (AMARE) ([20]; dosage 1280 g/ha) [%] | Pre-emergence action against Amaranthus retroflexus (AMARE) ([22]; dosage 320 g/ha) [%] | further results
1 | FC(F)c1cc(-c2c(Br)cccc2Oc2ccc(Cl)cn2)on1 [Example 1-53] | 100 | 100 | 100 | 100 | 100 | 100 | 100 | very good herbicidal activity | 100 | 100 | 100 | 100 | 100 | 100 | 100 | very good herbicidal activity | 90 | 100 | 100 | 100 | Pre-emergence action against Alopecurus myosuroides (ALOMY) ([1]; dosage 320 g/ha): 100%; Post-emergence action against Setaria viridis (SETVI) [2]: 100%; Pre-emergence action against Echinochloa crus-galli (ECHCG) [4]: 90%; Post-emergence action against Bassia scoparia (KCHSC) ([5]; dosage 320 g/ha): 90%; Pre-emergence action against Setaria viridis (SETVI) ([7]; dosage 320 g/ha): 100%; Pre-emergence action against Poa annua (POAAN) ([9]; dosage 320 g/ha): 100%; Pre-emergence action against Poa annua (POAAN) ([9]; dosage 1280 g/ha): 100%; Pre-emergence action against Lolium rigidum (LOLRI) ([10]; dosage 320 g/ha): 90%; Pre-emergence action against Lolium rigidum (LOLRI) ([10]; dosage 1280 g/ha): 100%; Pre-emergence action against Veronica persica (VERPE) ([13]; dosage 320 g/ha): 100%; Post-emergence action against Echinochloa crus-galli (ECHCG) ([14]; 320 g/ha): 100%; Post-emergence action against Echinochloa crus-galli (ECHCG) ([14]; 1280 g/ha): 100%; Post-emergence action against Digitaria sanguinalis (DIGSA) ([15]; dosage 320 g/ha): 100%; Pre-emergence action against Matricaria inodora (MATIN) ([21]; dosage 320 g/ha): 100%; Pre-emergence action against Matricaria inodora (MATIN) ([21]; dosage 1280 g/ha): 100%; Pre-emergence action against Amaranthus retroflexus (AMARE) ([22]; dosage 1280 g/ha): 100%
2 | CCc1cccc(Oc2ccc(Cl)cn2)c1-c1cc(C(F)F)no1 [Example 1-59] | 100 | 100 | 90 | 100 | 100 | 100 | 100 | very good herbicidal activity | 100 | 100 | 100 | 100 | 100 | 100 | 100 | very good herbicidal activity | 100 | 90 | 100 | 100 | Pre-emergence action against Alopecurus myosuroides (ALOMY) ([1]; dosage 320 g/ha): 100%; Pre-emergence action against Echinochloa crus-galli (ECHCG) [4]: 90%; Pre-emergence action against Abutilon theophrasti (ABUTH) [23]: 90%; Pre-emergence action against Setaria viridis (SETVI) ([7]; dosage 320 g/ha): 100%; Pre-emergence action against Digitaria sanguinalis (DIGSA) ([8]; dosage 320 g/ha): 100%; Pre-emergence action against Lolium rigidum (LOLRI) ([10]; dosage 1280 g/ha): 100%; Pre-emergence action against Veronica persica (VERPE) ([13]; dosage 320 g/ha): 100%; Post-emergence action against Digitaria sanguinalis (DIGSA) ([15]; dosage 320 g/ha): 100%; Post-emergence action against Alopecurus myosuroides (ALOMY) ([17]; 320 g/ha): 100%; Post-emergence action against Stellaria media (STEME) ([19]; dosage 320 g/ha): 100%; Post-emergence action against Veronica persica (VERPE) ([24]; dosage 320 g/ha): 100%; Post-emergence action against Veronica persica (VERPE) ([24]; dosage 1280 g/ha): 100%; Pre-emergence action against Amaranthus retroflexus (AMARE) ([22]; dosage 1280 g/ha): 100%
3 | Cc1cc(C)c(-c2cc(C(F)F)no2)c(Oc2ncc(Cl)cc2F)c1 [Example 1-79] | 90 | 90 | 90 | 100 | 100 | 100 | 100 | very good herbicidal activity | 100 | 100 | 100 | 100 | 100 | 100 | 90 | very good herbicidal activity | 100 | 100 | 100 | 100 | Post-emergence action against Bassia scoparia (KCHSC) ([5]; dosage 320 g/ha): 90%; Pre-emergence action against Abutilon theophrasti (ABUTH) [23]: 90%; Pre-emergence action against Poa annua (POAAN) ([9]; dosage 320 g/ha): 90%; Pre-emergence action against Poa annua (POAAN) ([9]; dosage 1280 g/ha): 100%; Post-emergence action against Stellaria media (STEME) ([19]; dosage 320 g/ha): 100%; Post-emergence action against Veronica persica (VERPE) ([24]; dosage 320 g/ha): 100%; Post-emergence action against Veronica persica (VERPE) ([24]; dosage 1280 g/ha): 100%; Pre-emergence action against Matricaria inodora (MATIN) ([21]; dosage 320 g/ha): 100%; Pre-emergence action against Matricaria inodora (MATIN) ([21]; dosage 1280 g/ha): 100%; Pre-emergence action against Amaranthus retroflexus (AMARE) ([22]; dosage 1280 g/ha): 100%
